# Biological target: T1, human LPA1 (Homo sapiens, UniProt Q92633)
# T1 construct: expressed in transfected cells; host or cells: Chinese hamster ovary (CHO) cells
# Assay: LPA1 functional antagonist assay (LPA-induced calcium flux in CHO cells overexpressing human LPA1)
# Format: cell-based
# Settings: inhibition of calcium flux induced by 10 nM LPA, CHO cells overexpressing human LPA1; read-out: hLPA1 IC50
# Summary of the method: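 Calcium flux was triggered by 10 nM LPA after 20 min room-temperature compound pre-incubation (final 0.08 nM to 5 μM, 0.5% DMSO) in human LPA1-overexpressing CHO cells carrying calcium dye. Buffer: HBSS with Ca/Mg, 20 mM HEPES, 0.1% fatty-acid-free BSA; IC50s from 4-parameter logistic fits.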
# T1 sequence (Q92633 whole entry): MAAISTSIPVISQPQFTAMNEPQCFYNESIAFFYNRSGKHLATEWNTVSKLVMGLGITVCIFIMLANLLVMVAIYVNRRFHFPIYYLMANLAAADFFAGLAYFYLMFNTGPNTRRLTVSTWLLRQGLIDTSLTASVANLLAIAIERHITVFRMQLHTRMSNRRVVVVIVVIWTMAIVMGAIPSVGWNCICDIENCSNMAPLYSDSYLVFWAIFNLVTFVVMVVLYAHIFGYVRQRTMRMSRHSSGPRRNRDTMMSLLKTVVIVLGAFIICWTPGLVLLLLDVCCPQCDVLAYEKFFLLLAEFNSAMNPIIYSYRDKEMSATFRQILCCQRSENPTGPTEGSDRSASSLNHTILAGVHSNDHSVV
row,IC50 [nM],Compound
1,1490,Cc1nc(-c2nnn(C)c2CNc2ncn(C(C)C)n2)ccc1O[C@H]1CCC[C@H](C(=O)O)C1 [Example 126]
2,425,CCCc1nsc(OCc2c(-c3ccc(O[C@H]4CCC[C@H](C(=O)O)C4)c(C)n3)nnn2C)n1 [Example 127]
3,98,Cc1nc(-c2nnn(C)c2COc2nc(C(C)C)ns2)ccc1O[C@H]1CCC[C@H](C(=O)O)C1 [Example 128]
4,41,CCc1nc(OCc2c(-c3ccc(O[C@H]4CCC[C@H](C(=O)O)C4)c(C)n3)nnn2C)no1 [Example 129]
5,26,Cc1nc(-c2nnn(C)c2COc2noc(C(C)C)n2)ccc1O[C@H]1CCC[C@H](C(=O)O)C1 [Example 130]
6,19,CCCc1nc(OCc2c(-c3ccc(O[C@H]4CCC[C@H](C(=O)O)C4)c(C)n3)nnn2C)no1 [Example 131]
7,97,CCCc1nnc(OCc2c(-c3ccc(O[C@H]4CCC[C@H](C(=O)O)C4)c(C)n3)nnn2C)s1 [Example 132]
8,208,Cc1nc(-c2nnn(C)c2COc2cc(-c3ccccn3)on2)ccc1O[C@H]1CCC[C@H](C(=O)O)C1 [Example 133]
9,25,Cc1nc(-c2nnn(C)c2COc2noc(C3CC3)n2)ccc1O[C@H]1CCC[C@H](C(=O)O)C1 [Example 134]
10,32,"Cc1nc(-c2nnn(C)c2COc2ncn(CC(C)C)n2)ccc1O[C@H]1CCC[C@H](C(=O)O)C1 [Example 135, (1 S,3 S)-3-((6-(5-(((1-Isobutyl-1H-1,2,4-triazol-3-yl)oxy)methyl)-1-methyl-1H-1,2,3-triazol-4-yl)-2-methylpyridin-3-yl)oxy)cyclohexane-1-carboxylic acid]"
11,20,"Cc1nc(-c2nnn(C)c2COc2nnn(CC(C)C)n2)ccc1O[C@H]1CCC[C@H](C(=O)O)C1 [Example 136, (1S,3S)-3-((6-(5-(((2-Isobutyl-2H-tetrazol-5-yl)oxy)methyl)-1-methyl-1H-1,2,3-triazol-4-yl)-2-methylpyridin-3-yl)oxy)cyclohexane-1-carboxylic acid]"
12,320,CC(C)c1nc(NCc2c(-c3ccc(O[C@H]4CCC[C@H](C(=O)O)C4)cn3)nnn2C)ns1 [Example 137]
13,36,CCCc1cnc(NCc2c(-c3ccc(O[C@H]4CCC[C@H](C(=O)O)C4)c(C)n3)nnn2C)o1 [Example 138]
14,38,Cc1nc(-c2nnn(C)c2CNc2ncc(C(C)C)o2)ccc1O[C@H]1CCC[C@H](C(=O)O)C1 [Example 139]
15,57,Cc1nc(-c2nnn(C)c2COc2ncn(CC3CC3)n2)ccc1O[C@H]1CCC[C@H](C(=O)O)C1 [Example 140]
16,71,CCCCn1cnc(OCc2c(-c3ccc(O[C@H]4CCC[C@H](C(=O)O)C4)c(C)n3)nnn2C)n1 [Example 141]
17,509,CCC(C)n1cnc(OCc2c(-c3ccc(O[C@H]4CCC[C@H](C(=O)O)C4)c(C)n3)nnn2C)n1 (stereo partly drawn) [Example 142]
18,24,Cc1nc(-c2nnn(C)c2COc2nnn(CC3CC3)n2)ccc1O[C@H]1CCC[C@H](C(=O)O)C1 [Example 143]
19,94,Cc1nc(-c2nnn(C)c2COc2nnnn2CC(C)C)ccc1O[C@H]1CCC[C@H](C(=O)O)C1 [Example 144]
20,31,Cc1nc(-c2nnn(C)c2CNc2noc(COC(C)C)n2)ccc1O[C@H]1CCC[C@H](C(=O)O)C1 [Example 145]
21,103,COCCCc1nc(NCc2c(-c3ccc(O[C@H]4CCC[C@H](C(=O)O)C4)c(C)n3)nnn2C)no1 [Example 146]
22,45,CCOCc1nc(NCc2c(-c3ccc(O[C@H]4CCC[C@H](C(=O)O)C4)c(C)n3)nnn2C)no1 [Example 147]
23,19,Cc1nc(-c2nnn(C)c2CNc2noc(C3(F)CCC3)n2)ccc1O[C@H]1CCC[C@H](C(=O)O)C1 [Example 148]
24,221,CCC(C)n1cnc(NCc2c(-c3ccc(O[C@H]4CCC[C@H](C(=O)O)C4)c(C)n3)nnn2C)n1 (stereo partly drawn) [Example 149]

row,IC50 [nM],Compound
1,68.2,CCCCn1cnc(NCc2c(-c3ccc(O[C@H]4CCC[C@H](C(=O)O)C4)c(C)n3)nnn2C)n1 [Example 150]
2,114,Cc1nc(-c2nnn(C)c2CNc2noc(C3CCOC3)n2)ccc1O[C@H]1CCC[C@H](C(=O)O)C1 (stereo partly drawn) [Example 151]
3,179,Cc1nc(-c2nnn(C)c2CNc2ncn(CC3CC3)n2)ccc1O[C@H]1CCC[C@H](C(=O)O)C1 [Example 152]
4,46.1,Cc1nc(-c2nnn(C)c2CNc2noc(C3CC(F)(F)C3)n2)ccc1O[C@H]1CCC[C@H](C(=O)O)C1 [Example 153]
5,441,Cc1nc(-c2nnn(C)c2CNc2noc(C3(C)CC3)n2)ccc1O[C@H]1CCC[C@H](C(=O)O)C1 [Example 154]
6,85,Cc1nc(-c2nnn(C)c2CNc2noc(C(C)(C)C)n2)ccc1O[C@H]1CCC[C@H](C(=O)O)C1 [Example 155]
7,29,Cc1nc(-c2nnn(C)c2CNc2nc(CC3CCC3)no2)ccc1O[C@H]1CCC[C@H](C(=O)O)C1 [Example 156]
8,53,Cc1nc(-c2nnn(C)c2CNc2nc(CC(C)C)no2)ccc1O[C@H]1CCC[C@H](C(=O)O)C1 [Example 157]
9,21,Cc1nc(-c2nnn(C)c2CNc2nc(CCC(C)C)no2)ccc1O[C@H]1CCC[C@H](C(=O)O)C1 [Example 158]
10,6,Cc1nc(-c2nnn(C)c2CNc2noc(CCC3CC3)n2)ccc1O[C@H]1CCC[C@H](C(=O)O)C1 [Example 165]
11,5,Cc1nc(-c2nnn(C)c2CNc2noc(CCC3CCC3)n2)ccc1O[C@H]1CCC[C@H](C(=O)O)C1 [Example 166]
12,16,Cc1nc(-c2nnn(C)c2CNc2noc(CCC(C)F)n2)ccc1O[C@H]1CCC[C@H](C(=O)O)C1 (stereo partly drawn) [Example 167]
13,84,Cc1nc(-c2nnn(C)c2CNc2cc(C(C)C)no2)ccc1O[C@H]1CCC[C@H](C(=O)O)C1 [Example 168]
14,63,Cc1nc(-c2nnn(C)c2CNc2cc(C(C)(C)C)on2)ccc1O[C@H]1CCC[C@H](C(=O)O)C1 [Example 169]
15,18,CCC(C)Cc1nc(NCc2c(-c3ccc(O[C@H]4CCC[C@H](C(=O)O)C4)c(C)n3)nnn2C)no1 (stereo partly drawn) [Example 170]
16,12,CCCC(C)c1nc(NCc2c(-c3ccc(O[C@H]4CCC[C@H](C(=O)O)C4)c(C)n3)nnn2C)no1 (stereo partly drawn) [Example 171]
17,120,COCCc1nc(NCc2c(-c3ccc(O[C@H]4CCC[C@H](C(=O)O)C4)c(C)n3)nnn2C)no1 [Example 172]
18,266,Cc1nc(-c2nnn(C)c2CNc2noc(C3CC3)n2)ccc1O[C@H]1CCC[C@H](C(=O)O)C1 [Example 173]
19,223,Cc1nc(-c2nnn(C)c2CNc2noc(C(C)C)n2)ccc1O[C@H]1CCC[C@H](C(=O)O)C1 [Example 174]
20,20,Cc1nc(-c2nnn(C)c2CNc2noc(C3CCC3)n2)ccc1O[C@H]1CCC[C@H](C(=O)O)C1 [Example 175]
21,25.4,Cc1nc(-c2nnn(C)c2CNc2noc(C3CCCC3)n2)ccc1O[C@H]1CCC[C@H](C(=O)O)C1 [Example 176]
22,9.1,Cc1nc(-c2nnn(C)c2CNc2noc(CCCC(F)(F)F)n2)ccc1O[C@H]1CCC[C@H](C(=O)O)C1 [Example 177]
23,27.4,CCC(C)c1nc(NCc2c(-c3ccc(O[C@H]4CCC[C@H](C(=O)O)C4)c(C)n3)nnn2C)no1 (stereo partly drawn) [Example 178]
24,43.5,Cc1nc(-c2nnn(C)c2CNc2noc(CCC(C)(C)F)n2)ccc1O[C@H]1CCC[C@H](C(=O)O)C1 [Example 179]

# — patent US11319315B2, “Cyclohexyl acid triazole azoles as LPA antagonists” (BRISTOL-MYERS SQUIBB COMPANY, priority 2017, dated 2022)
